In ChEMBL document CHEMBL5727994, “Heterocyclic glutaminase inhibitors” (2020):

test: Modified Recombinant Enzyme Assay: Glutaminase reaction buffer was prepared [50 mM Tris-HCl pH 8.8, 150 mM K2HPO4, […] EDTA, 0.1 mg/ml BSA (Calbiochem no. 2960), 1 mM DTT, 2 mM NADP+(Sigma Aldrich no. N5755), and 0.01% TX-100] and used to make 3×-enzyme-containing solution, 3×-substrate-containing solution, and 3×-inhibitor-containing solution (see below) Inhibitor-containing solution was made

IC50 [nM]	Structure (SMILES)
16	O=C(Cc1ccc(Cl)c(OC(F)(F)F)c1)Nc1ccc(CCCCc2nnc(NC(=O)Cc3ccccn3)s2)nn1
33	O=C(Cc1ccc(F)c(OC(F)(F)F)c1)Nc1ccc(CCCCc2nnc(NC(=O)Cc3ccccn3)s2)nn1
24	COc1ccc(CC(=O)Nc2ccc(CCCCc3nnc(NC(=O)Cc4ccccn4)s3)nn2)cc1OC(F)(F)F
20	O=C(Cc1cc(OC(F)(F)F)ccc1F)Nc1ccc(CCCCc2nnc(NC(=O)Cc3ccccn3)s2)nn1
42	O=C(Cc1ccc(O)c(OC(F)(F)F)c1)Nc1ccc(CCCCc2nnc(NC(=O)Cc3ccccn3)s2)nn1
13	O=C(Cc1cc(O)cc(OC(F)(F)F)c1)Nc1ccc(CCCCc2nnc(NC(=O)Cc3ccccn3)s2)nn1

Further lines, the compound ahead of its results:

Structure (SMILES)	IC50 [nM]
COc1cc(CC(=O)Nc2ccc(CCCCc3nnc(NC(=O)Cc4ccccn4)s3)nn2)cc(OC(F)(F)F)c1	16
O=C(Cc1cc(OC(F)(F)F)ccc1O)Nc1ccc(CCCCc2nnc(NC(=O)Cc3ccccn3)s2)nn1	26
COc1ccc(OC(F)(F)F)cc1CC(=O)Nc1ccc(CCCCc2nnc(NC(=O)Cc3ccccn3)s2)nn1	34
Nc1cccc(CC(=O)Nc2nnc(CCCCc3ccc(NC(=O)Cc4cccc(OC(F)(F)F)c4)nn3)s2)n1	50
Cc1cccc(CC(=O)Nc2nnc(CCCCc3ccc(NC(=O)Cc4cccc(OC(F)(F)F)c4)nn3)s2)n1	12
CC(C)(C)OC(=O)Nc1cccc(CC(=O)Nc2nnc(CCCCc3ccc(NC(=O)Cc4cccc(OC(F)(F)F)c4)nn3)s2)n1	140
O=C(Cc1ccccn1)Nc1nnc(CCCCc2ccc(NC(=O)C(O)c3ccccc3)nn2)s1 (stereo not drawn)	190
